System: phosphorylation in the linker regions of Smad proteins
Assay: Smad linker region phosphorylation in TGF-β-treated myofibroblasts, immunoprecipitation and immunoblotting with phosphorylation-specific antibodies
Type: cell-based
Conditions: myofibroblasts from rat liver, compounds 30 minutes before 200 pM TGF-β, FIG. 3
Method: The phosphorylation of Smad2 and Smad3 was examined by western blotting using antibodies against Smad2 and Smad3 which were site-specifically phosphorylated after the immunoprecipitation with anti-Smad2 antibody and anti-Smad3 antibody.
Myofibroblasts (MFB 2×10^6 cells/100 mm dish) from rat liver were cultured in DMEM medium (containing 5% fetal bovine serum) for several days and further cultured with 200 pM TGF-β (R&D Systems) for 30 minutes under the serum-free conditions. The cells were homogenized with RIPA buffer (10 mM Tris-HCl, pH 7.8/1% NP40/0.15M NaCl/1 mM EDTA/10 μg/ml aprotinin), and the resultant lysate was centrifuged at 15,000×g. The supernatant was incubated with Smad-specific antibodies and protein G-sepharose (Amersham Bioscience) to obtain immunoprecipitate. After the incubation, part of the precipitate was subjected to SDS-polyacrylamide gel electrophoresis, the obtained gel was transferred onto a PVDF membrane, and immunoblotting was performed using the antibodies specific for phosphorylation of the linker regions and C-terminal regions in Smad2 and Smad3. The detection was carried out by a chemiluminescence technique using HRP-labeled secondary antibody/anti-IgG, IgH antibody (Amersham Bioscience). […] The detected bands were quantified using an imaging analyzer.

C[S+]([O-])c1ccc(-c2nc(-c3ccncc3)c(-c3ccc(F)cc3)[nH]2)cc1 (stereo not shown) [SB203580]
phosphorylation in the linker regions of Smad proteins: inhibited

— patent publication US7417124B2, “Antibodies specific for phosphorylation sites and screening methods using the same antibodies” (Zeria Pharmaceutical Co., Ltd., priority 2003, dated 2008)
